Several values for one entry are separate records, joined by “and”; a condition that tells them apart may be missing. Identical values can stand only once. Entries after “also recorded” stand apart in the source; their conditions may differ. Like-named read-outs stand apart in the source and are kept apart here.
How the values were obtained:
NSCLC NCI-H460 = assay: GI50 in NSCLC NCI-H460 cells (CellTiter-Glo); assay type: cell-based, human
Experimental: (§1) As per methods previously presented, cells were grown in an appropriate medium for the cell line of interest. 96 well plates of each cell line were seeded with 5000 cells per well and left overnight. […] Luminescence was recorded on a Synergy 4.0 (BioTek Instruments, Winooski, VT, USA). Assays were performed in triplicate.

Colon Cancer HCT-116 = assay: GI50 in colon cancer HCT-116 cells (CellTiter-Glo); assay type: cell-based, human
Experimental: as §1

[1] = Pharmacokinetics in mouse whole blood after IV NUC041 in lipid nano-emulsion (LNE); conditions: analyte in whole blood, NUC041 15 mg/kg IV in LNE vehicle, mice
Excerpt: As per methods previously presented, the lipid nano-emulsion (Latitude Pharmaceuticals, San Diego, CA, USA) contained an oil phase consisting of an injectable oil and lecithin and an aqueous phase comprising a tonicity adjuster, a stabilizer, and water.

[2] = tested on: human colon cancer (LoVo); assay: Mouse xenograft model of human colon cancer (LoVo); assay type: in vivo, NCr-nu/nu mice
Experimental: NUC041 in LNE was tested at 30 mg/kg IV for three consecutive days a week for three weeks in a mouse xenograft model of human colon cancer (Lovo) and compared to saline control (SC).
Study initiation began when the required number of mice had tumors of approximately 40 to 75 mm^3. […] Study initiation began when the required number of mice had tumors of approximately 32 to 75 mm^3.
Mice received test article as described in the text. […] Any animal whose weight decreased more than 30% from the weight on the first day of treatment or whose tumor reached 4000 mm^3 in volume, ulcerated, sloughed off, or was moribund was euthanized prior to study termination.

[3] = Tolerability studies of NUC041 formulated in PPD; assay type: in vivo, mice
Experimental: Administration of 50 µL of PPD vehicle IM led to a weight loss of 10.9% two days following vehicle administration. NUC041 was formulated at a concentration of 60 mg/mL in this vehicle.

human NSCLC NCI-H460 [4] = assay: Tumor histology of NCI-H460 xenografts; assay type: in vivo, NCr-nu/nu mice
Excerpt: Approximately half of each tumor was fixed in 10% neutral-buffered formalin and the other half was frozen. The fixed neoplasm was trimmed, processed, embedded, and microtomed (approximately 5 µm sections). Tissue sections were mounted on glass slides, stained with hematoxylin and eosin (H&E), and coverslipped. Slides were submitted to a veterinary pathologist for a histopathologic evaluation.

human NSCLC NCI-H460 [5] = assay: Human NSCLC NCI-H460 xenograft; conditions: for mean tumor volume at which ulceration developed: SC 2770; for deaths in group / mice that developed tumor ulceration: NCI-H460 xenograft; for deaths in group: n = 10 per group, NUC041: 0.6 mg group; for mice that developed tumor ulceration: NUC041 both PPD groups, evaluable mice, SC 4 of 10; for Median survival: p = NS
Experimental: Survival refers to animals that were not removed from the study by death or per protocol euthanasia.
Mice with tumors in the proper volume range were arbitrarily assigned to groups. Mice received test article as described in the text. Mice were observed daily for mortality and moribundity with weights and the tumor measurements taken twice weekly. Tumor volume was determined using the formula for an ellipsoid sphere: Length × Width^2/2 = Volume (mm^3). The experiments were scheduled to last 60 days from the day of tumor implant.

[6] = Pharmacokinetics in mouse whole blood after IM NUC041 in PEG-phospholipid depot (PPD); conditions: analyte in whole blood, NUC041 3 mg/mouse IM in PPD, mice
Experimental: Quantitative determination of NUC013 and NUC041 in quenched mouse whole blood was accomplished using protein precipitation and high-performance liquid chromatography with tandem mass spectrometry detection. Gemcitabine-^13C, ^15N2 “GemC-^13C”, was used as the internal standard. NUC013, NUC041 and GemC-^13C were extracted from 50 µL whole blood using protein precipitation with acetonitrile. Extracts were analyzed by hydrophilic interaction chromatography at 35 °C, using a XBridge™ Amide column (Waters Corp., Milford, MA, USA) under isocratic conditions, with 100 mM ammonium acetate pH 9: ethanol: acetonitrile (25:25:500, v/v/v) as mobile phase A. Column effluents at a constant flow rate of 300 µL/min were analyzed by multiple reaction monitoring (MRM) using a triple quadrupole mass spectrometer in positive-ion mode (AB Sciex 4000 Q Trap, equipped with TurboV IonSpray®) (SCIEX, Framingham, MA, USA).
The calibration curve for each analyte was fitted using weighted (1/x^2) linear regression analysis of the Analyte/IS peak area ratio versus Analyte/IS concentration ratio from 5–5000 ng/mL.
Pharmacokinetic parameters were calculated from mean concentrations of NUC-041 or NUC013 in blood over time for mice using Phoenix® WinNonlin® (Version 6.3; Pharsight, A Certara Company; Cary, NC, USA).
The PEG-phospholipid depot (Latitude Pharmaceuticals, San Diego, CA, USA) comprised of S-100, DSPE-PEG 2000, sesame oil, and alcohol. These four constituents were placed in a vial, warmed to 40 °C until all products dissolved, and the vehicle was then vortexed. Subsequently, the vehicle was filtered through a 0.22 µm syringe filter and NUC041 was added. The formulated product was heated to 40 °C, vortexed, and stored at 2–8 °C.

[7] = design: method as in PMID 28726739; conditions: mice; cited from earlier work
[8] = continuous infusion over seven days, patients with refractory solid tumors; cited from earlier work
[9] = IM, mice premedicated with dexamethasone 50 µg IP
[10] = Mice 2-4 (individual), NUC041 0.6 mg/mouse qod, euthanasia day 34
[11] = Mouse 1, NUC041 2.4/3.0 mg/mouse qwk + dexamethasone, euthanasia day 35

Molecule “3′,5′-di-trimethylsilyl-2′,2′-difluoro-5-azadeoxycytidine [NUC041]” has a GI50 (NSCLC NCI-H460; 72 h exposure) of 1.61 µM, a GI50 (Colon Cancer HCT-116; 72 h exposure) of 2.8 µM and an AUCinf [1] of 590.6 ng·h/mL. For the same molecule, the AUClast [1] was 580.4 ng·h/mL, the Cl [1] was 423 mL/min/kg and the Cmax [1] was 2803 ng/mL. It also gave a T1/2 [1] of 11 min, a Vss [1] of 4.431 L/kg and a Tmax ([1]; for NUC041 first sampling time) of 3 min. For the same molecule, the “mice with tumor ulcerations, LoVo study” value ([2]; NUC041 administered IV in LNE, SC 3/10) was 2/10, the “efficacy in xenograft model of human colon cancer (LoVo)” value ([2]; NUC041 in LNE 30 mg/kg IV) was “only moderate efficacy” and the “study days on which growth of LoVo was significantly inhibited compared to SC” value ([2]; NUC041 in LNE 30 mg/kg IV, three consecutive days a week for three weeks, p < 0.05) was 27–30 study days. For the same molecule, the “tolerability of IM injection of 3 mg per mouse” value ([3]; 50 µg IP dexamethasone 30 min prior) was “without weight loss or lethality”, the “maximum tolerated dose (MTD)” value ([3]; IM qod, no premedication, mice) was 0.6 mg/mouse and the MTD [3, 9] was greater than 3 mg/mouse. The “MTD as mean dose” value [3, 9] was greater than 123.8 mg/kg, the “Tumor Volume” value (human NSCLC NCI-H460 [4]; [10]) was 3035 mm^3 and 1960 mm^3 and 936 mm^3 and the Ulceration (human NSCLC NCI-H460 [4]; [10]) was “no ulceration; also recorded: ulceration”. The “Histopathology: necrosis” value (human NSCLC NCI-H460 [4]; Mice 2-4 (individual), NUC041 0.6 mg/mouse qod, euthanasia day 34, in ulcerated tumors excludes area of ulceration) was 50–60% necrosis and 10% necrosis * and 5% necrosis *, the “Histopathology: necrosis” value (human NSCLC NCI-H460 [4]; [11]) was 30–40% necrosis and the “Tumor Volume” value (human NSCLC NCI-H460 [4]; [11]) was 2746 mm^3. For the same molecule, the Ulceration (human NSCLC NCI-H460 [4]; [11]) was “no ulceration”, the “mean tumor volume at which ulceration developed” value (human NSCLC NCI-H460 [5]; 0.6 mg NUC041 group, p = 0.0068) was 1474 mm^3 and the “mean tumor volume at which ulceration developed” value (human NSCLC NCI-H460 [5]; 3 mg NUC041 with dexamethasone group, p = 0.0043) was 1319 mm^3. The deaths in group (human NSCLC NCI-H460 [5]) was “two”, the “mice that developed tumor ulceration” value (human NSCLC NCI-H460 [5]) was 15 of 18 and the Median survival (human NSCLC NCI-H460 [5]; NUC041 0.6 mg IM qod x 15) was 24.5 days. For the same molecule, the peak tumor volume (human NSCLC NCI-H460 [5]; NUC041 0.6 mg group, Mice 3 and 4) was 3179 mm^3 and 1913 mm^3, the “regression in tumor volume” value (human NSCLC NCI-H460 [5]; NUC041 0.6 mg group, two individual mice with ulcerated tumors (Mice 3 and 4), day 25 to 32) was 38% and 51% and the Median survival (human NSCLC NCI-H460 [5]; NUC041 2.4 mg/mouse IM qwk x 3 then 3.0 mg/mouse qwk x 1 with 50 µg dexamethasone IP) was 25.5 days. The “survival benefit vs SC” value (human NSCLC NCI-H460 [5]; NUC041 in PPD with or without dexamethasone pretreatment) was “no survival benefit”, the AUCinf [6] was 6261 ng·h/mL and the AUClast [6] was 6030 ng·h/mL. For the same molecule, the Cmax [6] was 4210 ng/mL, the MRT [6] was 156 min and the T1/2 [6] was 102 min. For the same molecule, the Tmax [6] was 30 min and the Vz/F [6] was 1.172 L/kg.

For Nc1ncn([C@@H]2O[C@H](CO)[C@@H](O)C2(F)F)c(=O)n1 [NUC013, 5-aza-2′,2′-difluorodeoxycytidine], the GI50 (NSCLC NCI-H460; Homo sapiens, NCI-H460, 72 h exposure) is listed as 1.57 µM, the GI50 (Colon Cancer HCT-116; Homo sapiens, HCT-116, 72 h exposure) is listed as 2.58 µM and the MTD [7] is listed as greater than 120 mg/kg. For the same molecule, the deaths in group (human NSCLC NCI-H460 [5]) was “One”, the “mice that developed tumor ulceration” value (human NSCLC NCI-H460 [5]) was 1 of 10 and the “hazard ratio (HR) vs SC” value (human NSCLC NCI-H460 [5]; NUC013 20 mg/kg IV qd three consecutive days per week x 4, p = 0.0018, Log rank test) was 0.14.

For Nc1ncn([C@H]2C[C@H](O)[C@@H](CO)O2)c(=O)n1 [decitabine], the MTD [8] is given as 2 mg/m^2 qd and the “main dose limiting toxicity” value [8] is given as “neutropenia”.

From PMC6027359, “NUC041, a Prodrug of the DNA Methytransferase Inhibitor 5-aza-2′,2′-Difluorodeoxycytidine (NUC013), Leads to Tumor Regression in a Model of Non-Small Cell Lung Cancer” (Pharmaceuticals, 2018)
